Entries after “also recorded” stand apart in the source; their conditions may differ.
Key:
[1] = target: T1, mouse MBLAC1 (Mus musculus, UniProt Q8BWY4); test: Backscattering interferometry (BSI) binding of unlabeled Cef to lysates of TET-induced T-REx cells expressing mouse MBLAC1; conditions: 5 μM and 50 μM
T1 construct: mouse and human Mblac1 cDNAs were subcloned into pcDNA5/FRT/TO vector; expressed in transfected cells; cell lysate
T1 sequence (Q8BWY4 1-260): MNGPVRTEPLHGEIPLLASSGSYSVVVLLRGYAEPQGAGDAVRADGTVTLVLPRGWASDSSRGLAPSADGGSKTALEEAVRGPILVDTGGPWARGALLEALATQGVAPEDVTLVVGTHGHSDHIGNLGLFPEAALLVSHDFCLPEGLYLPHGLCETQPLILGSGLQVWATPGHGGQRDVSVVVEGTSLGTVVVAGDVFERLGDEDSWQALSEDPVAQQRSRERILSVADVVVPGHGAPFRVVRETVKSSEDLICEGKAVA
Method: (§1) HEK Flp-In T-REx-293 cells (T-REx) expressing mouse or human MBLAC1 proteins were generated per manufacturer's (ThermoFisher, Waltham, Mass., USA) instructions. Briefly, mouse and human Mblac1 cDNAs were subcloned into pcDNA5/FRT/TO vector and then co-transfected with pOG44 plasmid (encoding Flp recombinase) by lipid based transfection into Flp-In T-REx-293 cells using TransIT-LT1 (Mirus, Madison, Wis.). Stable integrants were isolated following selection with 100 μg/ml hygromycin. Expression of MBLAC1 protein was induced by addition of 1 μg/mL tetracycline (TET) to the media. […]
(§2) To assess the binding of unlabeled Cef with MBLAC1 in cell and tissue lysates, BSI was utilized. […] RI changes are quantified by comparing fringe shifts between test and reference samples.
(§3) Lysates for BSI contained Cef at concentrations of 0 μM, 5 μM, and 50 μM and concentrations of either 300 μg/mL (mouse cell lysates) or 100 μg/mL (human cell lysates and mouse brain lysates) protein. […] To obtain BSI signals, the sample with 0 μM Cef was injected into the channel in a stop-flow manner using a vacuum and allowed to reach temperature and pressure equilibrium (˜10 sec) at which point the phase value (BSI signal) was measured for 20 sec. Specific BSI signal was determined by subtracting Cef only signal from Cef-lysate signals. […]

[2] = target: T2, human MBLAC1 (Homo sapiens, UniProt A4D2B0); test: Backscattering interferometry (BSI) binding to lysates of TET-induced T-REx cells expressing human MBLAC1; conditions: 5 μM and 50 μM
T2 construct: mouse and human Mblac1 cDNAs were subcloned into pcDNA5/FRT/TO vector; expressed in transfected cells; cell lysate
T2 sequence (A4D2B0 1-266): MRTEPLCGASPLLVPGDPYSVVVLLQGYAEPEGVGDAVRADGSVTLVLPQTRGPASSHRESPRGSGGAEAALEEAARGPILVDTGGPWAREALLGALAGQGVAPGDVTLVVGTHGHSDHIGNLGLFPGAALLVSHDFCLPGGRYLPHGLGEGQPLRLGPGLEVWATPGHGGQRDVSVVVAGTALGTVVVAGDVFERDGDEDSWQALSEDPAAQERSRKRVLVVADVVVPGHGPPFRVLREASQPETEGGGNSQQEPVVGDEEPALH
Method: as §1, §2, §3

[3] = test system: MBLAC1; test: MBLAC1 pulldown with Cef-conjugated CN-Br Sepharose beads, competition by free Cef; format: binding
[4] = target: T3, MBLAC1 (Mus musculus, UniProt Q8BWY4); test: BSI binding to mouse frontal cortex lysates, with and without MBLAC1 immunodepletion
T3 construct: from tissue; host or cells: mouse (C57BL/6J) frontal cortex, 100,000 x g supernatant
T3 sequence (Q8BWY4 1-260): T1 sequence (Q8BWY4 1-260)
Method: Wild type C57BL/6J mice (Jackson Labs, Bar Harbor, Me.) were rapidly decapitated and frontal cortex was dissected. Tissue was homogenized in ice cold 20 mM HEPES buffer (pH 7.4) using a Dounce homogenizer (Wheaton, Millville, N.J.), and then sonicated (F60 sonic dismembrator, Fisher Scientific, Waltham, Mass.) using 5, 1 sec pulses. Lysates were then centrifuged at 100,000×g for 30 min. Supernatants were collected, diluted with 2× lysis buffer (40 mM HEPES, 220 mM KCl, 20 mM NaCl, 4 mM MgCl, 10 mM KH2PO4, 500 μM ZnSO4) and protein concentration determined (BCA Protein Assay, ThermoFisher, Waltham, Mass.). […]
as §2, §3

[5] = test system: MBLAC1 WT and MBLAC1 KO mice; test: Effect of repeated Cef on cocaine-induced locomotion, open field; format: in vivo, mouse; conditions: Cef 200 mg/kg IP once daily 10 days, cocaine 10 mg/kg 24 h later
Method: Animals: All mice were used in accordance with protocols approved by the Florida Atlantic University Institutional Animal Care and Use Committee. Mice were group-housed on a 12 h/12 h light/dark cycle and given ad libitum access to food and water. Breeding was accomplished with mating of heterozygous males with heterozygous females. Male and female mice 11-13 weeks old at the start of the experiment were used in testing the effects of repeated ceftriaxone on response to cocaine in the open field assay. Data from males and females were combined.
Repeated Cef treatment/acute cocaine administration: MBLAC1 wild-type (WT, MBLAC1^+/+) and knockout mice (MBLAC1^−/−) were used in this experiment. Mice were injected IP once daily for 10 days with 200 mg/kg ceftriaxone (CEF) or saline. Twenty-four hours following the last CEF injection, mice were injected with 10 mg/kg cocaine or saline followed immediately by testing in open field activity chambers (Med Associates, Fairfax, Vt.) for 60 minutes. Locomotor activity was evaluated by photocells in the X, Y and Z dimensions. Horizontal beam breaks, vertical beam breaks, and repetitive movements were recorded and measures, including distance traveled, vertical rearing and stereotypic counts, were calculated. Data were analyzed in 5 min time bins within session, and for the first 30 min following cocaine injection. Data were analyzed by two-way ANOVA repeated measures, with time bin as the repeated measure, or by two-way ANOVA for 30 min cumulated data. At the end of behavior, mice were euthanized by CO2.
The methods were performed essentially as described in Tallarida et al. Neurosci Lett vol. 556, p. 155-159, 2013.

SMILES	BSI binding signal [1]	BSI binding signal [2]	Mean reduction in MBLAC1 binding to immobilized Cef ([3]; 50 μM free Cef preincubated with lysate, n=6) [%]	MBLAC1 capture by Cef-conjugated beads ([3]; lysates preincubated with Cef 50 μM)	BSI binding signal ([4]; mouse frontal cortex lysate immunodepleted of MBLAC1 with antibody #80)	BSI binding signal ([4]; mouse frontal cortex lysate, 5 μM and 50 μM)	Effect on cocaine-induced locomotion (ambulatory distance, first 30 min) ([5]; MBLAC1 KO mice)	Effect on cocaine-induced locomotion (ambulatory distance, first 30 min) ([5]; MBLAC1 KO mice, listed as CEF)	Effect on cocaine-induced locomotion (ambulatory distance, first 30 min) ([5]; MBLAC1 WT mice)	Effect on cocaine-induced locomotion (ambulatory distance, first 30 min) ([5]; MBLAC1 WT mice, listed as CEF)
CO/N=C(\C(=O)N[C@@H]1C(=O)N2C(C(=O)O)=C(CSc3nc(=O)c(=O)[nH]n3C)CS[C@H]12)c1csc(N)n1 [Cef, ceftriaxone]	concentration-dependent, heat-sensitive BSI binding signals; also recorded: significant, dose-dependent BSI signals; also recorded: Significant dose-dependent BSI signals	concentration-dependent, heat-sensitive BSI binding signals; also recorded: significant, dose-dependent BSI signals	52.4±9.3	significantly diminished MBLAC1 capture	eliminated Cef binding activity; also recorded: the Cef binding signal was abolished	shows binding signal with Cef	no ability to attenuate cocaine actions	had no effect on the response to cocaine	the locomotor activating effects of cocaine were lost	completely blocked the effects of cocaine
CC(=O)OCC1=C(C(=O)O)N2C(=O)[C@@H](NC(=O)CCC[C@@H](N)C(=O)O)[C@H]2SC1 [CephC, cephalosporin C]	non-significant reduction in BSI signal; also recorded: a significant CephC BSI signal (FIG. 3D) was not seen									

From patent publication US11693005B2, “Methods for identifying treatments that reduce the actions of substances of abuse and addiction” (Florida Atlantic University Board of Trustees, priority 2018, dated 2023)
